Measured values: patent US9243037B2, “Gramicidin a mutants that function as antibiotics with improved solubility and reduced toxicity” (Trustees of Boston College, priority 2011, dated 2016)
Where two headings read alike, the source gives them in different places. Marks after values point to notes of the source that are not given here.

What was measured:
[1] = system: human red blood cells (hRBCs); test: Haemoglobin release from human red blood cells; format: cell-based
Procedure: Fresh human red blood cells (hRBCs) were centrifuged at 3500 rpm and washed with PBS buffer until the supernatant was clear. The hRBCs were then resuspended and diluted to a final concentration of 1% (v/v) in PBS and used immediately. 15 μL of serial dilution (2-fold) of peptides in DMSO or DMSO alone as a negative control were added to 1.5 mL of hRBCs in PBS. The resulting mixture was gently shaken to mix well and incubated at 37° C. for 1 hr, followed by centrifugation at 3500 rpm for 10 min using tabletop centrifuge. Aliquots (50 μL) of the supernatant (in triplicates) were transferred into a sterile 96-well plate containing 50 μL of H2O in each well. Release of hemoglobin was monitored at 415 nm using a microtiter plate reader. Percentage hemolysis was calculated using percentage hemolysis=100·(A415, peptide-A415,DMSO)/(A415, complete hemolysis-A415, DMSO), where complete hemolysis is achieved by mixing hRBCs with 1% TritonX-100.

[2] = physchem; format: physicochemical
Procedure: Peptide solubility in 10 mM HEPES buffer with 1% DMSO was measured by monitoring tryptophan absorbance. A concentrated (6.0-8.0 mM) peptide stock solution in DMSO was diluted 100 times (5 μL of the stock into 500 jtl of 10 mM HEPES buffer, pH 7.0). The mixture was sonicated for 30 mins and then subject to centrifugation (14,000 rpm, 10 mins) to remove possible precipitate. The supernatant (400 μL) was transferred to a quartz cuvette and the peptide concentration was determined by tryptophan absorbance at 280 nm (ε=22760 M−1 cm-1). The UV/Vis spectra of the supernatant can be seen in FIG. 1 and FIG. 5.

[3] = system: Bacillus subtilis (ATCC 663)
[4] = system: Staphylococcus aureus (ATCC 6538); settings: for MICs S. Aureus: Table 2, standard micro-dilution
[5] = system: Streptococcus pyogenes (ATCC 19615)
[6] = FIG. 2
Procedure: Table printed on a drawing sheet, FIG. 2
Water solubility of gA variants is determined by Trp absorbance at 280 nm and summarized in the inserted table. Buffer used: 10 mM HEPES containing 1% DMSO. The solubility of gA-WT was obtained from reference.
First reader's note: Saturation concentration (water solubility); the gA-WT cell carries its own unit (nM), and the marker [a] is not explained on the sheet.

[7] = system: bacteria; test: Antibacterial activity, strain not singled out; settings: in words
Procedure: Minimal Inhibitory Concentrations (MICs) were measured against Gram-negative Escherichia coli (BL21) and Gram-positive Bacillus subtilis (ATCC 663), Staphylococcus aureus (ATCC 6538), Streptococcus pyogenes (ATCC 19615) using the broth microdilution method.[2] Specifically, bacteria from a single colony were grown overnight in LB broth at 37° C. with agitation. An aliquot was taken and diluted (1:50 for E. coli, 1:20 for B. subtilis, 1:200 for S. aureus, 1: 10 for S. pyogenes) in fresh broth and cultured for another ˜3 hours until the cells reach mid-logarithmic phase (OD590-0.6). The cells were diluted to a concentration of ˜5×10^5 Colony Forming Units/ml (CFU/ml) and the bacteria suspension (200 μL) was added to each well of a sterile 96-well plate. Serial diluted (2-fold) peptides in DMSO (2 μL) were added in triplicates. The plates were shaken for 30 seconds to mix the peptide solution well with the broth, and then incubated at 37° C. overnight before the absorbance at 590 nm was monitored using a microtiter plate reader (SPECTRAMAX M5, Molecular Devices, Sunnyvale, Calif.). The viability of the bacteria was normalized as % survival=(ODpep,bac−ODbroth only)/(ODDMSO, bac-ODbroth only)×100%.

[8] = system: human red blood cells (hRBCs); test: K+ leakage from hRBCs (flame atomic emission); format: cell-based; settings: hRBCs
Procedure: The rest of supernatant (1.2 mL) from each sample prepared as described in the hemoglobin leakage assay was transferred into a new sterile eppendorf tube and subject to the K+ concentration measurement using a flame-atomic emission spectrometer (λem=766.5 nm, Perkin Elmer Atomic absorption Spectrometer 3100, acetylene/air flame). Three readings were taken for each sample and averaged as final results. The fraction of K+ leakage from hRBCs was calculated as percentage K+ leaked=100·(I776.5,peptide−I776.5,DMSO)/(I776.5,complete lysis−I776.5,DMSO).

[9] = system: HeLa; test: MTT toxicity assay; format: cell-based, human; settings: HeLa; in words
Procedure: (§1) Toxicity of gA-WT and gA-5 was tested against two human cancer cell lines, HeLa and MCF-7 (gifts from Professor Eranthie Weerapana at Boston College) by using the MTT assay as described in the protocol provided by Invitrogen.[5] HeLa cells (in DMEM high glucose media with 10% FBS, 1% Pen/Strep, 37° C., 5% CO2) and MCF-7 cells (in RPMI media with 10% FBS and 1% Pen/Strep, 37° C., 5% CO2) were grown to about 80% confluent before removed from the surface of a 20 cm petri-dish with […] with EDTA (3-5 mins, 37° C., 5% CO2). Cells were pelleted (3,500 rpm, 5 mins at 4° C.), and plated at 15,000 cells per well (100 μL per well), then incubated for 48 hrs before peptide addition.
(§2) Stock solutions of gA in DMSO with varied concentrations were prepared so that for each peptide concentration the total volume of DMSO addition was kept constant at 1% (v/v). For each peptide concentration, samples were set up as four replicates. Control wells were loaded with 1 μL of DMSO. After overnight incubation, cells were washed once with PBS before being incubated for 4 hrs with 110 μL of 12 mM 3-(4,5-Dimethylthiazol-2-yl)-2,5-diphenyltetrazolium bromide (MTT) dissolved in RPMI media. The MTT assay was quenched with 100 μL of 10% SDS in 0.01 M HCl and allowed to incubate overnight before absorbance at 570 nm was recorded. Wells were averaged and standard deviations determined for each peptide concentration. Data were normalized to the DMSO control to give % cell survival (see FIG. 3).

[10] = system: MCF-7; test: MTT toxicity assay; format: cell-based, human; settings: MCF-7; in words
Procedure: as §1, §2

[11] = wild type; from reference [8]; cited from earlier work
[12] = Table 2, standard micro-dilution

## CC(C)C[C@@H](NC(=O)[C@H](C)NC(=O)CNC(=O)[C@@H](NC=O)C(C)C)C(=O)N[C@@H](C)C(=O)N[C@@H](C(=O)N[C@H](C(=O)N[C@@H](C(=O)N[C@@H](Cc1c[nH]c2ccccc12)C(=O)N[C@H](CCCNC(=N)N)C(=O)N[C@@H](Cc1c[nH]c2ccccc12)C(=O)N[C@H](CCCNC(=N)N)C(=O)N[C@@H](Cc1c[nH]c2ccccc12)C(=O)N[C@H](CCCNC(=N)N)C(=O)N[C@@H](Cc1c[nH]c2ccccc12)C(=O)NCCO)C(C)C)C(C)C)C(C)C (racemic) [gA-6, formyl-V-G-A-dL-A-dV-V-dV-W-dR-W-dR-W-dR-W-NHCH2CH2OH]
[1]
  HC50 (50% haemoglobin leakage relative to 1% TritonX-100): 20 µM
[2]
  water solubility, fold higher than wild-type Gramicidin A: ~800 fold
[3]; ATCC 663
  MICs B. Subtilius: 2.5~5 μM
[3]; B. subtilis
  MIC relative to wild-type Gramicidin A: equivalent to or ˜2-fold higher
[4]; S. Aureus
  MIC relative to wild-type Gramicidin A: much higher MIC
[4]
  MICs S. Aureus: >10 ^[e] μM
[5]; ATCC 19615
  MICs S. Pyogenes: 1.25 µM
[5]; S. Pyogenes
  MIC relative to wild-type Gramicidin A: equivalent to or ˜2-fold higher
[6]
  SAT. CONC/μM: 43 µM
[7]
  antibacterial activity / MIC: low μM potency

## CC(C)C[C@@H](NC(=O)[C@H](C)NC(=O)CNC(=O)[C@@H](NC=O)C(C)C)C(=O)N[C@@H](C)C(=O)N[C@@H](C(=O)N[C@H](C(=O)N[C@@H](C(=O)N[C@@H](Cc1c[nH]c2ccccc12)C(=O)N[C@H](CC(C)C)C(=O)N[C@@H](Cc1c[nH]c2ccccc12)C(=O)N[C@H](CC(C)C)C(=O)N[C@@H](Cc1c[nH]c2ccccc12)C(=O)N[C@H](CC(C)C)C(=O)N[C@@H](Cc1c[nH]c2ccccc12)C(=O)NCCO)C(C)C)C(C)C)C(C)C (racemic) [gA-WT, formyl-V-G-A-dL-A-dV-V-dV-W-dL-W-dL-W-dL-W-NHCH2CH2OH, reference compound]
[1]; Table 2, hRBCs
  HC50 (50% haemoglobin leakage relative to 1% TritonX-100): 5 µM
[1]; Table 6, hRBCs, preliminary
  Toxicity HC50: 5 µM
[1]; Table 8
  HC50: 5
[8]; Table 2
  KC50 (50% K+ ion leakage relative to 1% TritonX-100): 0.00014 µM
[8]; Table 6, preliminary
  Toxicity KC50: 0.00014 µM
[8]
  KC50: 140 pM
[9]
  toxicity, cell survival (MTT): low μM potency
[10]
  toxicity, cell survival (MTT): low μM potency
[3]; [12]
  MICs B. Subtilius: 2.5 µM
[3]; Table 6
  Minimum Inhibition Concentration B. Subtilius: 2.5 µM
[4]
  MICs S. Aureus: 2.5 µM
[4]; Table 6
  Minimum Inhibition Concentration S. Aureus: 2.5 µM
[5]; [12]
  MICs S. Pyogenes: 0.16 µM
[5]; Table 6
  Minimum Inhibition Concentration S. Pyogenesis: 0.16 µM
[11]
  solubility in water: < 0.05 µM
